This passage reports Activity, IC50 and MIC results from ChEMBL document CHEMBL1145551, “Further pterocellins from the New Zealand marine bryozoan Pterocella vesiculosa” (J Nat Prod, 2008).

Data set [1] deals with Amorphotheca resinae. In words: Antifungal activity against Cladosporium resinae. The data set is classed as functional, organism-based.
For data set [2], the system named is P388. Nature of the data set: Cytotoxicity against mouse P388 ATCC CCL 46 cells. In kind it is functional, cell-based.
Data set [3] concerns Human alphaherpesvirus 1. Nature of the data set: Antiviral activity against HSV1 F ATCC VR 733 in african green monkey BSC1 cells. In kind it is functional, organism-based. The note with it: BSC-1.
Data set [4] has as its system Poliovirus 1. Nature of the data set: Antiviral activity against PV1 in african green monkey BSC1 cells. The data set is classed as functional, organism-based. The note with it: BSC-1.
Data set [5] is described as follows: Cytotoxicity against african green monkey BSC1 cells at 40 ug/disc. The data set is classed as cell-based. The note with it: chlorocebus aethiops, bsc-1.
Data set [6] deals with Escherichia coli. Nature of the data set: Antibacterial activity against Escherichia coli. In kind it is functional, organism-based.
Data set [7] relates to Bacillus subtilis. Nature of the data set: Antibacterial activity against Bacillus subtilis. The data set is classed as functional.
The test system of data set [8] is Pseudomonas aeruginosa. In words: Antibacterial activity against Pseudomonas aeruginosa. The data set is classed as functional, organism-based.
The test system of data set [9] is Candida albicans. In words: Antifungal activity against Candida albicans. In kind it is functional, organism-based.
Data set [10] deals with Trichophyton mentagrophytes. Nature of the data set: Antifungal activity against Trichophyton mentagrophytes. In kind it is functional, organism-based.

≈ marks a conversion by molar mass, not a printed value. Calls of active or inactive are those of the source. The rule behind the calls is not given here.

A word on the IC50: it is the concentration that gives 50% inhibition. `COc1cn2c(c(Cc3c4n(cc(OC)c3=O)-c3c(ccnc3CC(C)C)C4=O)c1=O)C(=O)c1ccnc(CC(C)C)c1-2` [PTEROCELLIN F]: the outcome in [1], in [3], in data set [4], in data set [6], in data set [8] and in [9] was inactive. For the same compound, the result in [10] was inactive. This compound also displayed an IC50 in data set [2] above 6.25 µg/mL. The Activity result in [5] is on record as “Non-toxic”. The MIC in data set [7] amounted to 1 µg.

Take `COc1cn2c(c(-c3c4n(cc(OC)c3=O)-c3c(ccnc3CC(C)C)C4=O)c1=O)C(=O)c1ccnc(CC(C)C)c1-2` [PTEROCELLIN E]: the result in [1], in data set [3], in data set [4], in data set [6], in data set [8] and in [9] was inactive. Besides, the result in data set [10] was inactive. This compound had an IC50 in data set [2] above 6.25 µg/mL. For the same compound, in data set [5], the Activity entry is recorded as “Non-toxic”. The compound also gave an MIC in [7] of 1 µg.

Regarding `COc1cn2c(c(CCCCC(C)=O)c1=O)C(=O)c1ccnc(CC(C)C)c1-2` [PTEROCELLIN C], the outcome in data set [1], in [3], in [4], in data set [6], in data set [8] and in data set [9] was inactive. In addition, in data set [10], the outcome was inactive. Besides, the IC50 in data set [2] was above 6.25 µg/mL. The Activity entry in data set [5] was “Non-toxic”. The compound further yielded an MIC in data set [7] of 0.2 µg.

In the case of `COc1cn2c(c(C(C)C)c1=O)C(=O)c1ccnc(CC(C)C)c1-2` [PTEROCELLIN D], the outcome in data set [1], in [8] and in data set [9] was inactive. The compound further gave an IC50 in data set [2] of 4.77 µg/mL (≈ 14.6 µM). This compound displayed an MIC in data set [7] of 0.5 µg.

In data set [2], `COc1cn2c(cc1=O)C(=O)c1ccnc(CC(C)C)c1-2` [PTEROCELLIN A] returned an IC50 of 0.477 µg/mL (≈ 1.68 µM).

On to `COc1cn2c(cc1=O)C(=O)c1ccnc(Cc3ccccc3)c1-2` [PTEROCELLIN B], for which, in data set [2], the 50% inhibitory concentration (IC50) turned out to be 0.323 µg/mL (≈ 1.01 µM).
